# Results as given in ChEMBL document CHEMBL1150255, “Spongian diterpenes with thyrotropin releasing hormone receptor 2 binding affinity from Spongia sp” (J Nat Prod, 2008).
# Target: T1, Thyrotropin-releasing hormone receptor 2 (Rattus norvegicus, UniProt A6IZR3)
# T1 sequence (A6IZR3 whole entry): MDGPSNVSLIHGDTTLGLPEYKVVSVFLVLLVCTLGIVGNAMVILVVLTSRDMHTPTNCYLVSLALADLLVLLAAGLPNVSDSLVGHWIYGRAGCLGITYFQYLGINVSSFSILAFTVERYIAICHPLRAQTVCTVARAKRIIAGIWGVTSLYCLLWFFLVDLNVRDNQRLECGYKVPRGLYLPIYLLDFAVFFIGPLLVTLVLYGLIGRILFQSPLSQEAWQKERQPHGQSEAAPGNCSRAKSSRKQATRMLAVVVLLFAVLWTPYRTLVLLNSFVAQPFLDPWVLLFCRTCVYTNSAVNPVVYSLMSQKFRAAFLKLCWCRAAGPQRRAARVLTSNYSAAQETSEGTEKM
# Experiment: Displacement of [3H]3-methylhistidyl-TRH from rat recombinant TRHR2 expressed in […] cells
# Format: cell-based
row,SMILES,IC50
1,NC(=O)[C@@H]1CCCN1C(=O)[C@H](Cc1cnc[nH]1)NC(=O)[C@@H]1CCC(=O)N1 [PROTIRELIN],0.023 µM
2,CC(=O)OC[C@@]1(C)CCC[C@]2(CO)[C@H]3CCc4cocc4[C@]3(C)CC[C@@H]12,70 µM
3,CC1(C)CCC[C@]2(C)[C@H]3CCc4cocc4[C@]3(C)CC[C@@H]12,1000 µM
4,C[C@]1(CO)CCC[C@]2(CO)[C@H]3CCc4cocc4[C@]3(C)CC[C@@H]12,600 µM
5,CC(=O)OC[C@]12CCC[C@](C)(CO)[C@@H]1CC[C@@]1(C)c3cocc3CC[C@H]21,23 µM
6,CC(=O)OC[C@@]1(C)CCC[C@]2(COC(C)=O)[C@H]3CCc4cocc4[C@]3(C)CC[C@@H]12,400 µM
